Source: US20230278972A1, “SUBSTITUTED HALOALKYL SULFONANILIDE HERBICIDES” (FMC Corporation, priority 2020, published 2023)

Tests used:
Format in all cases: in vivo
[1] = tested on: Foxtail, Giant (giant foxtail, Setaria faberi); experiment: Test A postemergence, Foxtail, Giant; settings: Postemergence; for Foxtail, Giant plant response rating: 500 g ai/ha, visual injury vs untreated controls after approx. 10 days
In short: (§1)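 Formulated with a surfactant in a non-phytotoxic solvent, compounds are applied to loam–sand pots, either to bare soil immediately after seeding (preemergence) or to seedlings of 2 to 10 cm bearing one to two leaves (postemergence).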

[2] = tested on: pigweed (Amaranthus retroflexus); experiment: Test A postemergence, pigweed; settings: Postemergence; for Pigweed plant response rating: 500 g ai/ha, visual injury vs untreated controls after approx. 10 days
In short: as §1

kochia (Bassia scoparia) [3] = experiment: Test A preemergence, kochia; settings: Preemergence; for Kochia plant response rating: 125 g ai/ha, visual injury on 0 to 100 scale (0 no effect, 100 complete control), approximately 10 days; for Plant response rating, Kochia: 0 to 100 scale (0 no effect, 100 complete control)
In short: as §1

[4] = tested on: barnyardgrass (Echinochloa crus-galli); experiment: Test A postemergence, barnyardgrass; settings: Postemergence; for Barnyardgrass plant response rating: 500 g ai/ha, visual injury vs untreated controls after approx. 10 days
In short: (§2)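 Pots: loam soil/sand blend. Pre: directed soil spray at planting. Post: plants 2–10 cm, 1–2 leaf stage. Formulation: non-phytotoxic solvent + surfactant.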

[5] = tested on: blackgrass (Alopecurus myosuroides); experiment: Test A postemergence, blackgrass; settings: Postemergence; for Blackgrass plant response rating: 500 g ai/ha, visual injury vs untreated controls after approx. 10 days
In short: as §1

[6] = tested on: galium (catchweed bedstraw, Galium aparine); experiment: Test A postemergence, galium; settings: Postemergence; for Galium plant response rating: 500 g ai/ha, visual injury vs untreated controls after approx. 10 days
In short: as §2

[7] = tested on: barnyardgrass (Echinochloa crus-galli); experiment: Test A preemergence, barnyardgrass; settings: Preemergence; for Barnyardgrass plant response rating: 125 g ai/ha, visual injury on 0 to 100 scale (0 no effect, 100 complete control), approximately 10 days; for Plant response rating, Barnyardgrass: 0 to 100 scale (0 no effect, 100 complete control)
In short: as §1

corn (Zea mays) = experiment: Test A postemergence, corn; settings: Postemergence; for Corn plant response rating: 500 g ai/ha, visual injury vs untreated controls after approx. 10 days
In short: as §1

[8] = tested on: wheat (Triticum aestivum); experiment: Test A postemergence, wheat; settings: Postemergence; for Wheat plant response rating: 500 g ai/ha, visual injury vs untreated controls after approx. 10 days
In short: as §2

[9] = tested on: ragweed (common ragweed, Ambrosia artemisiifolia); experiment: Test A postemergence, ragweed; settings: Postemergence; for Ragweed plant response rating: 500 g ai/ha, visual injury vs untreated controls after approx. 10 days
In short: as §1

[10] = tested on: Ryegrass, Italian (Italian ryegrass, Lolium multiflorum); experiment: Test A postemergence, Ryegrass, Italian; settings: Postemergence; for Ryegrass, Italian plant response rating: 500 g ai/ha, visual injury vs untreated controls after approx. 10 days
In short: as §1

[11] = tested on: pigweed (Amaranthus retroflexus); experiment: Test A preemergence, pigweed; settings: for Pigweed plant response rating: 125 g ai/ha, visual injury on 0 to 100 scale (0 no effect, 100 complete control), approximately 10 days; for Plant response rating, Pigweed: 0 to 100 scale (0 no effect, 100 complete control)
In short: as §2

[12] = tested on: Ryegrass, Italian (Italian ryegrass, Lolium multiflorum); experiment: Test A preemergence, Ryegrass, Italian; settings: Preemergence; for Ryegrass, Italian plant response rating: 125 g ai/ha, visual injury on 0 to 100 scale (0 no effect, 100 complete control), approximately 10 days; for Plant response rating, Ryegrass, Italian: 0 to 100 scale (0 no effect, 100 complete control)
In short: as §1

kochia (Bassia scoparia) [13] = experiment: Test A postemergence, kochia; settings: Postemergence; for Kochia plant response rating: 500 g ai/ha, visual injury vs untreated controls after approx. 10 days
In short: as §1

[14] = tested on: ragweed (common ragweed, Ambrosia artemisiifolia); experiment: Test A preemergence, ragweed; settings: Preemergence; for Ragweed plant response rating: 125 g ai/ha, visual injury on 0 to 100 scale (0 no effect, 100 complete control), approximately 10 days; for Plant response rating, Ragweed: 0 to 100 scale (0 no effect, 100 complete control)
In short: as §1

[15] = tested on: Foxtail, Giant (giant foxtail, Setaria faberi); experiment: Test A preemergence, Foxtail, Giant; settings: Preemergence; for Foxtail, Giant plant response rating: 125 g ai/ha, visual injury on 0 to 100 scale (0 no effect, 100 complete control), approximately 10 days; for Plant response rating, Foxtail, Giant: 0 to 100 scale (0 no effect, 100 complete control)
In short: as §1

[16] = 125 g ai/ha, 0 to 100 scale (0 no effect, 100 complete control)
[17] = 0 to 100 scale (0 no effect, 100 complete control)
[18] = 31 g ai/ha, visual injury on 0 to 100 scale (0 no effect, 100 complete control), approx. 10 days
[19] = 31 g ai/ha, visual injury, approx. 10 days
[20] = 125 g ai/ha, visual injury approx. 10 days, 0 to 100 scale (0 no effect, 100 complete control)

SMILES	Plant response rating, Foxtail, Giant [1, 16]	Foxtail, Giant plant response rating [1, 17]	Plant response rating, Pigweed [2, 16]	Pigweed plant response rating [2, 17]	Kochia plant response rating (kochia (Bassia scoparia) [3])	Plant response rating, Kochia (kochia (Bassia scoparia) [3]; 500 g ai/ha)	Plant response rating, Barnyardgrass [4, 16]	Barnyardgrass plant response rating [4, 17]	Plant response rating, Blackgrass [5, 16]	Plant response rating, Galium [6, 16]	Barnyardgrass plant response rating [7]	Plant response rating, Corn (corn (Zea mays); [16])	Plant response rating, Wheat [8, 16]	Plant response rating, Ragweed [9, 16]	Plant response rating, Ryegrass, Italian [10, 16]	Pigweed plant response rating [11]	Ryegrass, Italian plant response rating [12]	Plant response rating, Kochia (kochia (Bassia scoparia) [13]; [16])	Ragweed plant response rating [14]	Foxtail, Giant plant response rating [15]	also measured
Cc1cc(C)c(C2=NOC3(CCOCC3)C2)cc1NS(=O)(=O)C(F)(F)F [Compound 177]	10	60	60	90	100	100	70	90	0	90	80	0	20	90	40	80	100	20	70	70	Blackgrass plant response rating [5, 17]: 30; Galium plant response rating [6, 17]: 90; Plant response rating, Barnyardgrass ([7]; 500 g ai/ha): 100; Corn plant response rating (corn (Zea mays); [17]): 50; Wheat plant response rating [8, 17]: 80; Ragweed plant response rating [9, 17]: 90; Ryegrass, Italian plant response rating [10, 17]: 90; Plant response rating, Pigweed ([11]; 500 g ai/ha): 100; Plant response rating, Ryegrass, Italian ([12]; 500 g ai/ha): 100; Kochia plant response rating (kochia (Bassia scoparia) [13]; [17]): 70; Plant response rating, Ragweed ([14]; 500 g ai/ha): 90; Plant response rating, Foxtail, Giant ([15]; 500 g ai/ha): 100
Cc1cc(C)c(N(S(=O)(=O)C(F)(F)F)S(=O)(=O)C(F)(F)F)cc1C(=O)N1CCC(C#N)CC1 [Compound 161]	20		80		90		80		0	90	100	50	0	70	20	100	100	50	90	80	Plant response rating, Foxtail, Giant [1, 18]: 0; Plant response rating, Pigweed [2, 18]: 70; Plant response rating, Kochia (kochia (Bassia scoparia) [3]; [19]): 30; Plant response rating, Barnyardgrass [4, 18]: 40; Plant response rating, Blackgrass [5, 18]: 0; Plant response rating, Galium [6, 18]: 30; Plant response rating, Barnyardgrass [7, 19]: 20; Plant response rating, Corn (corn (Zea mays); [18]): 10; Plant response rating, Wheat [8, 18]: 0; Plant response rating, Ragweed [9, 18]: 40; Plant response rating, Ryegrass, Italian [10, 18]: 20; Plant response rating, Pigweed [11, 19]: 70; Plant response rating, Ryegrass, Italian [12, 19]: 70; Plant response rating, Kochia (kochia (Bassia scoparia) [13]; [18]): 10; Plant response rating, Ragweed [14, 19]: 90; Plant response rating, Foxtail, Giant [15, 19]: 40
Cc1cc(C(F)(F)F)c(C(=O)N(C)C)cc1NS(=O)(=O)C(F)(F)F [Compound 133]		10	60	90	0	0		10			30		0	90	30	30	20		20	10	Plant response rating, Foxtail, Giant [1, 20]: 0; Plant response rating, Barnyardgrass [4, 20]: 0; Plant response rating, Blackgrass [5, 20]: 0; Blackgrass plant response rating [5, 17]: 0; Plant response rating, Galium [6, 20]: 80; Galium plant response rating [6, 17]: 90; Plant response rating, Barnyardgrass ([7]; 500 g ai/ha): 90; Plant response rating, Corn (corn (Zea mays); [20]): 10; Corn plant response rating (corn (Zea mays); [17]): 10; Wheat plant response rating [8, 17]: 50; Ragweed plant response rating [9, 17]: 80; Ryegrass, Italian plant response rating [10, 17]: 40; Plant response rating, Pigweed ([11]; 500 g ai/ha): 90; Plant response rating, Ryegrass, Italian ([12]; 500 g ai/ha): 90; Plant response rating, Kochia (kochia (Bassia scoparia) [13]; [20]): 20; Kochia plant response rating (kochia (Bassia scoparia) [13]; [17]): 20; Plant response rating, Ragweed ([14]; 500 g ai/ha): 90; Plant response rating, Foxtail, Giant ([15]; 500 g ai/ha): 90
CCOC1CCCN(C(=O)c2cc(NS(=O)(=O)C(F)(F)F)c(C)cc2C)C1 (centres unmarked) [Compound 154]	20		60		40		70		20	80	50	10	70	20	0	100	70	30	80	90	Plant response rating, Foxtail, Giant [1, 18]: 20; Plant response rating, Pigweed [2, 18]: 40; Plant response rating, Kochia (kochia (Bassia scoparia) [3]; [19]): 0; Plant response rating, Barnyardgrass [4, 18]: 30; Plant response rating, Blackgrass [5, 18]: 0; Plant response rating, Galium [6, 18]: 50; Plant response rating, Barnyardgrass [7, 19]: 0; Plant response rating, Corn (corn (Zea mays); [18]): 0; Plant response rating, Wheat [8, 18]: 30; Plant response rating, Ragweed [9, 18]: 0; Plant response rating, Ryegrass, Italian [10, 18]: 0; Plant response rating, Pigweed [11, 19]: 20; Plant response rating, Ryegrass, Italian [12, 19]: 20; Plant response rating, Kochia (kochia (Bassia scoparia) [13]; [18]): 10; Plant response rating, Ragweed [14, 19]: 50; Plant response rating, Foxtail, Giant [15, 19]: 60
